According to article PMC10291553, “Exploring Structure–Activity Relationships in Photodynamic Therapy Anticancer Agents Based on Ir(III)-COUPY Conjugates” (Journal of Medicinal Chemistry, 2023):
“And” between values parts separate entries of the source, which are not always exact repeats. Equal values may be shown once. Read-outs that look alike come from different tables or passages of the source.

Key:
[1] = system: A375; test: Photo- and cytotoxic activity determination (MTT), A375 cells; format: cell-based, human; conditions: normoxia; for A375 PI (phototherapeutic index), IC50 dark/IC50 irradiated: 520 nm, dark tested up to 100 μM; for IC50: 48 h drug-free medium
Text: (§1) Having shown that the Ir(III)-COUPY conjugates can sensitize both type I and II ROS through spectroscopic techniques and readily internalize into living cells, their photocytotoxicity was screened in various cancer cell lines. This screening included two representative melanoma cell lines (human A375 and […] human SK-MEL-28) and cancer cells with resistance to the clinical drug cisplatin. For the latter, both sensitive and cisplatin-resistant ovarian cancer cells (A2780 and A2780cis) as well as HeLa cells, which also show a degree of chemoresistance to the platinum anticancer drug in vitro,[54] were used. For the determination of dark and light cytotoxicity, dose–response curves were assayed from both conditions to provide the correspondent IC50 values, which correspond to the concentration needed for inhibition of cell growth by 50%. Phototherapeutic index (PI) was calculated as the ratio of dark to light IC50 value for each compound.
(§2) A375, HeLa, and SK-MEL-28 cells were cultured in Dulbecco’s modified Eagle medium (DMEM) supplemented with 10% FBS, L-glutamine, and 1% penicillin–streptomycin. A2780 and A2780cis cells were grown in RPMI-1640 cell medium supplemented with 10% fetal bovine serum (FBS) and 2 mM L-glutamine. Acquired resistance to cisplatin in the A2780cis cell line was maintained by adding cisplatin 1 μM to culture medium every second passage. Cells were cultured in a humidified incubator at 310 K with 5% CO2 atmosphere and subcultured two or three times a week with appropriate densities and were confirmed to be mycoplasma-free using a standard Hoechst DNA staining method.
(§3) A2780, A2780cis, HeLa, A375, and SK-MEL-28 cells were maintained at logarithmic growth-phase and cultured in 96-well plates at a density of 5000 cells/well in complete medium for 24 h at 310 K, 5% CO2 in a humidified incubator. For hypoxia experiments, a hypoxia condition was set up by Tissue Culture Service at University of Murcia using nitrogen (N2) to displace O2 down to a minimum of 2% in a Forma Steri-Cycle i160 incubator (Thermo Fisher Scientific). Serial dilutions of the compounds were added at the final concentrations in the range of 0–100 μM in a final volume of 100 μL per well. A light-based treatment schedule was performed as follows: 1 h incubation with the compounds in the dark, followed by 1 h incubation under irradiation conditions by placing the Photoreactor EXPO-LED from Luzchem (Canada) fitted with green lamps (final light intensity applied of 1.5 mW/cm^2 at λmax = 520 nm) inside the CO2 incubator. All the cell culture plates subjected to light irradiation included untreated controls to verify that cell viability was not affected by light. Then, treatment-containing media was removed, and fresh media was added for a 48 h cell recovery period; the temperature throughout the experiment remained at 310 K. Dark control samples were placed in the same dark conditions and then kept incubated for 1 h in the dark in the humidified CO2 incubator. Medium was then aspirated by suction, cells were loaded with 50 μL of MTT solution (1 mg/mL) for additional 4 h and then removed, and 50 μL of DMSO was added to solubilize the purple formazan crystals formed in active cells. The absorbance was measured at 570 nm using a microplate reader (FLUOstar Omega), and the IC50 values were calculated based on the inhibitory rate curves using the following equation [drawing 4] 4 where I represents the percentage inhibition of viability observed, Imax is the maximal inhibitory effect, IC50 is the concentration that inhibits 50% of maximal growth, C is the concentration of the treatment, and n is the slope of the semi-logarithmic dose–response sigmoidal curves. The non-linear fitting was performed using SigmaPlot 14.0 software. All experiments were performed in three independent studies with n = 3 replicates per concentration level. For a detailed phototoxicity procedure, ref ([43]) includes technical explanations.

[2] = system: A2780cis cells; test: Photo- and cytotoxic activity determination (MTT), A2780cis cells, normoxia or hypoxia; format: cell-based; conditions: for Partial inhibition (% of cell growth inhibition with respect to untreated controls), Hypoxia / Partial inhibition (% of cell growth inhibition with respect to untreated controls), Normoxia: 250 μM, 2 h incubation in the dark, 48 h drug-free recovery; for Hypoxia PI (phototherapeutic index) / Normoxia PI (phototherapeutic index): dark tested up to 250 μM; for A2780cis PI (phototherapeutic index), IC50 dark/IC50 irradiated: dark tested up to 100 μM
Text: as §1, §2
as §3, with “Serial dilutions of the compounds were added at the final concentrations in the range of 0–100 μM in a final volume of 100 μL per well.” left out

[3] = system: HeLa; test: Photo- and cytotoxic activity determination (MTT), HeLa cells; format: cell-based; conditions: normoxia; for HeLa PI (phototherapeutic index), IC50 dark/IC50 irradiated: 520 nm, dark tested up to 100 μM; for IC50: 48 h drug-free medium
Text: as §1, §2, §3

[4] = system: A2780; test: Photo- and cytotoxic activity determination (MTT), A2780 cells; format: cell-based; conditions: normoxia; for A2780 PI (phototherapeutic index), IC50 dark/IC50 irradiated: 520 nm, dark tested up to 100 μM; for IC50: 48 h drug-free medium
Text: as §1, §2, §3

[5] = 1 h incubation + 1 h green light 520 nm, 1.5 mW cm^–2, read-out: A375 light IC50
[6] = kept in the dark, 2 h treatment, read-out: A375 dark IC50
[7] = A2780cis, hypoxia 2% O2, 520 nm
[8] = A2780cis, hypoxia 2% O2, dark, tested up to 250 μM, read-out: Hypoxia Dark IC50
[9] = A2780cis, normoxia 21% O2, 520 nm
[10] = A2780cis, normoxia 21% O2, dark, tested up to 250 μM, read-out: Normoxia Dark IC50
[11] = hypoxia, 520 nm, read-out: A2780cis Light 520 nm IC50 (microM) Hypoxia
[12] = hypoxia, dark, read-out: A2780cis Dark IC50 (microM) Hypoxia
[13] = normoxia, 1 h incubation + 1 h green light 520 nm, 1.5 mW cm^–2, 48 h drug-free medium, read-out: A2780cis light IC50
[14] = normoxia, dark, up to 250 microM, read-out: A2780cis Dark IC50 (microM) Normoxia
[15] = normoxia, kept in the dark, tested up to 100 μM, 2 h treatment, 48 h drug-free medium, read-out: A2780cis dark IC50
[16] = 1 h incubation + 1 h green light 520 nm, 1.5 mW cm^–2, read-out: HeLa light IC50
[17] = kept in the dark, 2 h treatment, read-out: HeLa dark IC50
[18] = 1 h incubation + 1 h green light 520 nm, 1.5 mW cm^–2, read-out: A2780 light IC50
[19] = kept in the dark, 2 h treatment, read-out: A2780 dark IC50

CCCCn1c2[n+](c3cc(C(=O)NCCCNC(=O)C[n+]4ccc(/C(C#N)=C5/C=C(C)c6cc7c8c(c6O5)CCCN8CCC7)cc4)ccc31)[Ir-3]13([c]4ccccc4-c4[nH]c5ccccc5[n+]41)([c]1ccccc1-c1[nH]c4ccccc4[n+]13)[n+]1c-2ccc2ccccc21 [3c]
A375 PI (phototherapeutic index), IC50 dark/IC50 irradiated [1]: > 3
IC50 [1, 5]: 38 ± 5 µM
IC50 [1, 6]: > 100 µM
Partial inhibition (% of cell growth inhibition with respect to untreated controls), Hypoxia ([2]; A2780cis, hypoxia): 61 ± 8%
Partial inhibition (% of cell growth inhibition with respect to untreated controls), Normoxia ([2]; A2780cis, normoxia): 74 ± 10%
Hypoxia PI (phototherapeutic index) [2, 7]: > 31.3 and > 31
IC50 [2, 8]: > 250 µM
Normoxia PI (phototherapeutic index) [2, 9]: > 240.4 and > 240
IC50 [2, 10]: > 250 µM
IC50 [2, 11]: 8 ± 1 µM
IC50 [2, 12]: > 250 µM
A2780cis PI (phototherapeutic index), IC50 dark/IC50 irradiated ([2]; normoxia, 520 nm): > 96
IC50 [2, 13]: 1.04 ± 0.02 µM
IC50 [2, 14]: > 250 µM
IC50 [2, 15]: > 100 µM
HeLa PI (phototherapeutic index), IC50 dark/IC50 irradiated [3]: > 2.2
IC50 [3, 16]: 45 ± 4 µM
IC50 [3, 17]: > 100 µM
A2780 PI (phototherapeutic index), IC50 dark/IC50 irradiated [4]: > 48
IC50 [4, 18]: 2.1 ± 0.2 µM
IC50 [4, 19]: > 100 µM

CCCCn1c2[n+](c3cc(C(=O)NC[C@H]4CC[C@H](C(=O)NCCCNC(=O)C[n+]5ccc(/C(C#N)=C6/C=C(C)c7ccc(N(CC)CC)cc7O6)cc5)CC4)ccc31)[Ir-3]13([c]4ccccc4-c4[nH]c5ccccc5[n+]41)([c]1ccccc1-c1[nH]c4ccccc4[n+]13)[n+]1c-2ccc2ccccc21 [3e]
A375 PI (phototherapeutic index), IC50 dark/IC50 irradiated [1]: > 5
IC50 [1, 5]: 19 ± 3 µM
IC50 [1, 6]: > 100 µM
Partial inhibition (% of cell growth inhibition with respect to untreated controls), Hypoxia ([2]; A2780cis, hypoxia): 12 ± 3%
Partial inhibition (% of cell growth inhibition with respect to untreated controls), Normoxia ([2]; A2780cis, normoxia): 18 ± 1%
Hypoxia PI (phototherapeutic index) [2, 7]: > 147.1 and > 147
IC50 [2, 8]: > 250 µM
Normoxia PI (phototherapeutic index) [2, 9]: > 268.8 and > 269
IC50 [2, 10]: > 250 µM
IC50 [2, 11]: 1.7 ± 0.3 µM
IC50 [2, 12]: > 250 µM
A2780cis PI (phototherapeutic index), IC50 dark/IC50 irradiated ([2]; normoxia, 520 nm): > 108
IC50 [2, 13]: 0.93 ± 0.04 µM
IC50 [2, 14]: > 250 µM
IC50 [2, 15]: > 100 µM
HeLa PI (phototherapeutic index), IC50 dark/IC50 irradiated [3]: > 11
IC50 [3, 16]: 9.3 ± 0.8 µM
IC50 [3, 17]: > 100 µM
A2780 PI (phototherapeutic index), IC50 dark/IC50 irradiated [4]: > 53
IC50 [4, 18]: 1.9 ± 0.2 µM
IC50 [4, 19]: > 100 µM

CCCCn1c2[n+](c3cc(C(=O)OC)ccc31)[Ir-3]13([c]4ccccc4-c4[nH]c5ccccc5[n+]41)([c]1ccccc1-c1[nH]c4ccccc4[n+]13)[n+]1c-2ccc2ccccc21 [2a]
A375 PI (phototherapeutic index), IC50 dark/IC50 irradiated [1]: > 48
IC50 [1, 5]: 2.1 ± 0.3 µM
IC50 [1, 6]: > 100 µM
Partial inhibition (% of cell growth inhibition with respect to untreated controls), Hypoxia ([2]; A2780cis, hypoxia): 56 ± 6%
Partial inhibition (% of cell growth inhibition with respect to untreated controls), Normoxia ([2]; A2780cis, normoxia): 62 ± 4%
Hypoxia PI (phototherapeutic index) [2, 7]: > 22.7
IC50 [2, 8]: > 250 µM
Normoxia PI (phototherapeutic index) [2, 9]: > 71.4
IC50 [2, 10]: > 250 µM
IC50 [2, 11]: 11 ± 2 µM
IC50 [2, 12]: > 250 µM
A2780cis PI (phototherapeutic index), IC50 dark/IC50 irradiated ([2]; normoxia, 520 nm): > 29
IC50 [2, 13]: 3.5 ± 0.4 µM
IC50 [2, 14]: > 250 µM
IC50 [2, 15]: > 100 µM
HeLa PI (phototherapeutic index), IC50 dark/IC50 irradiated [3]: > 1.3
IC50 [3, 16]: 75 ± 6 µM
IC50 [3, 17]: > 100 µM
A2780 PI (phototherapeutic index), IC50 dark/IC50 irradiated [4]: > 25
IC50 [4, 18]: 4 ± 1 µM
IC50 [4, 19]: > 100 µM

CCCCn1c2[n+](c3cc(C(=O)NCCCNC(=O)C[n+]4ccc(/C(C#N)=C5/C=C(C)c6ccc(N(CC)CC)cc6O5)cc4)ccc31)[Ir-3]13([c]4ccccc4-c4[nH]c5ccccc5[n+]41)([c]1ccccc1-c1[nH]c4ccccc4[n+]13)[n+]1c-2ccc2ccccc21 [3a]
A375 PI (phototherapeutic index), IC50 dark/IC50 irradiated [1]: > 6
IC50 [1, 5]: 18 ± 3 µM
IC50 [1, 6]: > 100 µM
Partial inhibition (% of cell growth inhibition with respect to untreated controls), Hypoxia ([2]; A2780cis, hypoxia): 49 ± 4%
Partial inhibition (% of cell growth inhibition with respect to untreated controls), Normoxia ([2]; A2780cis, normoxia): 58 ± 7%
PI (phototherapeutic index), blue light ([2]; A2780cis, 465 nm): > 52.6
IC50 ([2]; A2780cis, 1 h incubation + 1 h blue light 465 nm, 5 mW/cm2, 48 h drug-free, read-out: 465 nm IC50): 1.9 µM
Hypoxia PI (phototherapeutic index) [2, 7]: > 65.8 and > 66
IC50 [2, 8]: > 250 µM
Normoxia PI (phototherapeutic index) [2, 9]: > 357.1 and > 357
IC50 [2, 10]: > 250 µM
IC50 [2, 11]: 3.8 ± 0.3 µM
IC50 [2, 12]: > 250 µM
A2780cis PI (phototherapeutic index), IC50 dark/IC50 irradiated ([2]; normoxia, 520 nm): > 143
IC50 [2, 13]: 0.7 ± 0.06 µM
IC50 [2, 14]: > 250 µM
IC50 [2, 15]: > 100 µM
HeLa PI (phototherapeutic index), IC50 dark/IC50 irradiated [3]: > 12
IC50 [3, 16]: 8.6 ± 0.7 µM
IC50 [3, 17]: > 100 µM
A2780 PI (phototherapeutic index), IC50 dark/IC50 irradiated [4]: > 94
IC50 [4, 18]: 1.07 ± 0.07 µM
IC50 [4, 19]: > 100 µM
